The text below walks through data of a melting point compilation (Tetko et al.; mined from patent text by program, amines drawn as free bases though some values may be those of a salt).

Some results are limits rather than exact numbers.

`O=C(O)CCC(=O)N1CCc2cc(S(=O)(=O)N3CCN(c4cccc(C(F)(F)F)c4)CC3)ccc21`: the melting point is 274 to 276 °C.
For `O=C1CC[C@]2(O)C[C@H]1OC2=O`, the melting point fell in the range of 144 to 145 °C.
Molecule `CCSC(C)C(=O)N(CC)c1c[nH]nc1Cl` (stereo unspecified) returned a melting point of 78 to 80 °C.
To `COC(=O)NCC(=CF)c1ccccc1` belongs 73 to 74 °C; to `Cc1ccc(-c2ccc3c(c2)C=C(C(=O)O)CC(C)O3)cc1` (stereo unspecified), 224 to 225 °C; to `CCOC(=O)c1nnc2ccc(C(C)=O)cc2c1O`, 250 to 252 °C.
With `CCOC(=O)C1=C(COCCCN(C)C)NC(C)=C(C(=O)OC)C1c1ccccc1Cl` (stereo unspecified), the melting point was 77 to 78 °C.
The same measure for `CC1(C)C(=O)C(c2ccc(F)c(F)c2)=C1c1ccc(S(C)(=O)=O)cc1`: 118 °C; for `O=[N+]([O-])c1ccccc1SN1CCN(C2CC2)CC1`: 100 to 102 °C; for `COCO[C@@H]1[C@H]2OC(C)(C)O[C@H]2[C@H](O[C@H]2C[C@H]3OC(C)(C)OC[C@]34C3C(CC[C@]4(O)C2)[C@@]2(O)CC[C@H](C#N)[C@@]2(C)C[C@H]3OCOC)O[C@H]1C` (stereo partly specified): 97 to 99 °C.
To `CC1(c2cc(NC(=O)Nc3ccc(OCCN4CCOCC4)c4ccccc34)n(-c3ccccc3)n2)CCCCC1` belongs 147 to 149 °C.
Turning to `O=C(OC1C(O)COC(Oc2ccc([N+](=O)[O-])cc2)C1OC(=O)c1ccccc1)c1ccccc1` (stereo unspecified), the melting point lay within 150 to 151 °C.
To `Oc1ccc2nc(-c3ccc(O)c(Cl)c3)oc2c1` belongs 254 to 256 °C.
Turning to `NC(=O)[C@@H]1[C@H](Nc2ccnc3[nH]c(-c4ccc(CN5CCOCC5)cc4)nc23)[C@H]2C=C[C@@H]1C2`, the melting point was in the range of 240 to 244 °C.
To `COc1ccc2c(Cc3c(Cl)cncc3Cl)nn(CC(=O)NO)c(=O)c2c1` belongs 256 to 258 °C; to `CCOC(=O)c1c(-c2ccccc2Cl)c2cc(CC)sc2[nH]c1=O`, 126 to 127 °C; to `N#Cc1cnc2sc(-c3cccc(C=O)c3)cc2c1Cl`, above 250 °C.
To `CNc1nc(N)nc(OCC(F)(F)F)n1` belongs 204 to 205 °C; to `COc1ccc(C2C(C(=O)/C=C/c3ccccc3)C(=O)CC(c3ccccc3)C2[N+](=O)[O-])cc1` (stereo unspecified), 108 to 110 °C.
To `COc1cc2c(Nc3ccc(Sc4nccn4C)c(Cl)c3)c(C#N)cnc2cc1OCCN1CCC(N2CCCC2)CC1` belongs 127 to 130 °C; to `Cc1cc2c(O)nccc2s1`, 214 to 216 °C.
In turn, `Cc1ccc(O)c(-c2csc(N(C)C)n2)c1` gave a melting point of 108 to 110 °C.
`COc1cc(Nc2c(C#N)cnc3cc(-c4cccc(C=O)c4)sc23)c(Cl)cc1Cl` gave a melting point of 262 to 263 °C.
The same measure for `CC(CCC(=O)Cl)C1CCC2C3CCC4CCCCC4(C)C3CCC12C` (stereo unspecified): 104 to 106 °C; for `CCOC(=O)[C@@H]1Cc2ccccc2N1C(=O)CC[C@@H](NC(=O)OCc1ccccc1)C(=O)OCc1ccccc1`: 114 to 116 °C.
`Fc1ccc(-c2cc(-c3ccc(F)cc3)nc(Nc3ccc(OC(F)(F)F)cc3)n2)cc1` displayed a melting point of 148 to 150 °C.
As to `CCOc1nn(CCOc2nn(CC)cc2CC(=O)O)cc1C(=O)NCc1ccc(Cl)cc1Cl`, the melting point was 157 to 158 °C.
The same measure for `CC(=O)C(Oc1cc(Cl)cc(C#N)c1)C(C)=O`: 105 to 108 °C; for `CNC(=S)C1(c2cccnn2)CCCS1` (stereo unspecified): 199 °C.
To `CCOC(=O)c1ccc([N+](=O)[O-])c(O)c1Br` belongs 58 to 61 °C; to `CCOC(=O)c1cn2c3c(ccc(OC)c3c1=O)OCC2C` (stereo unspecified), 165 to 168 °C; to `CC(C)(C)OC(=O)NC1CCN(C/C=C\CC(c2ccccc2)c2ccccc2)CC1`, 105 to 108 °C.
In the case of `Cc1cn(-c2ccc3nc(NC(=O)c4ccc(C(C)(C)C)cc4)cn3n2)c(C)n1`, the melting point lay in the range of 254 to 255 °C.
To `Cc1[nH]cnc1CSCCN=C(N)NCCNC(N)=NCCSCc1nc[nH]c1C` belongs 201 to 203 °C.
Consider `O=C1N(Cc2ccc(=O)[nH]c2)c2ccccc2C12COc1cc3c(cc12)OCCO3` (stereo unspecified), for which the melting point is 249 to 250 °C.
To `CN(C)Cc1ccc2cc(NC(=O)c3ccc(-c4ccc(Cl)cc4)cc3)ccc2c1` belongs 230 to 231 °C; to `NCc1ccccc1C1CCN(c2c(F)c(N)c3c(=O)c(C(=O)O)cn(C4CC4)c3c2F)C1` (stereo unspecified), 164 to 165 °C.
Molecule `C=CCN1CCCC1CNC(=O)c1cc(S(N)(=O)=O)cc2c1OCCO2` (stereo unspecified) registered a melting point of 143 to 144 °C.
To `NC1=CC(N)=NCN1C(=O)OCc1ccccc1` belongs 194 °C; to `CCCC1=C(C(=O)OCC)C(c2ccccc2Cl)c2cnn(C(=O)OC(C)(C)C)c2N1` (stereo unspecified), 112 to 116 °C.
The same measure for `CCOC(=O)c1c(N)nc(C)c(NC(C)=O)c1C`: 168 to 170 °C.
To `COCCn1nnnc1C1(c2cccc(C(F)(F)F)c2)C=CC(O)=CC1O` (stereo unspecified) belongs 115 to 156 °C; to `Fc1cccc(CSc2nnc(-c3ccn4ncnc4c3)o2)c1`, 153 to 154 °C.
Consider `O=C(Nc1cccnc1)c1ccc(OC(F)F)c2oc3ccccc3c12`, for which the melting point was in the range of 209 to 211 °C.
The same measure for `Nc1ncccc1C(=O)NCC1CCN(C[C@H]2COc3cccc(Cl)c3O2)CC1`: 62 to 70 °C; for `Cc1ccc2c(c1)C(=O)N(C)Cc1c(C#N)ncn1-2`: 252 °C.
To `CCOC(=O)C=Cc1cc(OCc2ccccc2)ccc1-c1ccc(-c2cccc(C(F)(F)F)c2)c(C=O)c1` belongs 116 to 118 °C; to `CCN1CCc2ccc(OC)c(Nc3ncc(Cl)c(Nc4ccc(N5CCOCC5)cc4OC)n3)c2CC1=O`, 87 to 103 °C; to `O=C1C(Cl)C(CCl)CN1c1cccc(Cl)c1` (stereo unspecified), 93 to 94 °C.
Take `CC(C)(C)OC(=O)N1CCCN(c2ccncc2)CC1`: the melting point was in the range of 124 to 129 °C.
The same measure for `Clc1cccnc1-c1ccc2[nH]nc(Nc3cnccn3)c2c1`: 228 to 230 °C; for `O=C1NCCc2c(OCC(O)CN3CCCCC3)cccc21` (stereo unspecified): 162 to 164 °C; for `O=S(=O)(N[C@H]1CC[C@H](CCN2CCC(c3cccc4c3CCO4)CC2)CC1)c1ccc(F)cc1`: 134 °C.
To `Cc1nc2ccccc2c(NCc2ccccc2)c1C(=O)O` belongs 190 °C.
The same measure for `Nc1cc(CCC(=O)N2CCCCC2)ccc1O`: 149 to 150 °C.
As for `NC(=O)c1[nH]c2ccccc2c1-c1ccc(NS(=O)(=O)c2cccc(Cl)c2Cl)cc1`, the melting point is above 260 °C.
The same measure for `COc1cc(-c2ccc(C#N)cc2)oc1-c1ccc(C#N)cc1`: 257 to 258 °C; for `O=Cc1cccc(CSCCNC(=O)c2c(Cl)cccc2Cl)c1`: 63 to 65 °C; for `O=C(Nc1cccc2c(=O)nc[nH]c12)c1c(Cl)cccc1Cl`: above 250 °C.
To `COc1ccc(C2=NN(CC(=O)Nc3cccc(-c4nnc(=O)sc4C)c3)C(=O)[C@H]3CC=CC[C@@H]23)cc1OC` (relative stereo) belongs 157 to 161 °C.
To `COc1cc(C)c(C(=O)c2c(Cl)cccc2Cl)c(O)c1O` belongs 182 °C.

What is called melting point is the temperature, or range, at which the solid turns liquid.
